≈ marks a conversion by molar mass, not a printed value.

The term MIC denotes the smallest concentration in the dilution series that meets the test's criterion for growth inhibition. Lower therefore signals a more susceptible organism.

Experiment [1] is described as follows: Cytotoxicity against mouse NS1 cells. It counts as functional.
The next experiment relates to Bacillus subtilis. Kind of experiment: Antimicrobial activity against Bacillus subtilis. In kind it is functional.

In experiment [1], `C=CC(C)(C)[C@@]12C[C@H]3C(=O)N/C(=C/c4c[nH]cn4)C(=O)N3[C@@H]1Nc1ccccc12` [ROQUEFORTINE C] yielded an LD99 of 50 µg/mL. In addition, the MIC in the experiment on Bacillus subtilis is 6.3 µg/mL (≈ 16.2 µM).

Molecule `C=CC(C)(C)c1[nH]cnc1/C=C1/NC(=O)[C@@H]2C[C@@]3(C(C)(C)C=C)c4ccccc4N[C@H]3N2C1=O` [ROQUEFORTINE E] yielded an LD99 in experiment [1] of 24 µg/mL.

For the origin of these results see ChEMBL document CHEMBL1158833, “Roquefortine E, a diketopiperazine from an Australian isolate of Gymnoascus reessii” (2005).
